One data set concerns JJN-3. The experiment in a line: Antitumor activity against human JJN-3 cells xenografted in nude mouse assessed as tumor growth inhibition at 25 mg/kg, po administered for 14 days relative to control. It is filed as functional. The note with it: JJN-3, 336 h, time 14 day, read-out: TGI. Background: A xenograft is tissue or cells of one species grown in another, often human tumour cells in immunodeficient mice.

Another data set deals with GTL 16 cell line. The experiment in a line: Antiproliferative activity against human GTL 16 cell line assessed as inhibition of cell viability incubated for 72 hrs by 3H-thymidine incorporation assay. Type of data set: functional, cell-based.
The test system of data set [1] is GEO. Briefly: Antitumor activity against human GEO cells xenografted in nude mouse assessed as tumor growth delay time at 25 mg/kg, po administered for 17 days relative to control. It is filed as functional. The following applies: time 17 day.
Data set [2] in a line: Toxicity in nude mouse xenografted with human GEO cells assessed as mortality at 12.5 mg/kg, po administered for 3 days in presence of cetuximab at 0.125 mg/kg relative to control. Type of data set: organism-based. The note with it: in vivo, time 3 day.
Data set [3] is described as follows: Toxicity in nude mouse xenografted with human GEO cells assessed as body weight loss at 12.5 mg/kg, po administered for 17 days. The following applies: in vivo, 408 h, time 17 day. It is filed as organism-based.
Data set [4] in a line: Plasma concentration in nude mouse xenografted with mouse IGF-1R-Sal cells at 3.125 mg/kg, po administered for 2 hrs by LC-MS/MS analysis. Type of data set: ADME, organism-based.
Another data set relates to Mus musculus. Briefly: Anti-diabetic activity against nude mouse xenografted with mouse IGF-1R-Sal cells assessed as insulin level at 12.5 mg/kg, po administered for 2 hrs by ELISA analysis (Rvb= 0.39 +/- […]). Type of data set: functional.
Data set [5] relates to GEO. The experiment in a line: Antitumor activity against human GEO cells xenografted in nude mouse assessed as tumor growth inhibition at 12.5 mg/kg, po administered for 3 days in presence of cetuximab at 0.25 mg/kg relative to control. It is filed as functional. The note with it: 72 h, time 3 day, read-out: TGI.

Molecules are shown by their SMILES.

One may read the IC50 as the concentration needed to halve the response being measured. A word on the mortality: it is the percentage killed. Consider `C[C@@]1(C(=O)Nc2ccc(F)nc2)CCCN1c1nc(Nc2cc(C3CC3)n[nH]2)c2cccn2n1` [BMS-754807], for which the inhibition in vivo at 25 mg/kg with JJN-3 is 53%. Besides, in the data set with GTL 16 cell line, the IC50 was determined as 200 nM. Besides, the Time with GEO [1] came to 7 days. Moreover, the mortality at 72 h in data set [2] stood at 0%. Moreover, the Activity in data set [3] is -0.8 g; in the data set with Mus musculus, 5.1 ng/mL. The compound further yielded a concentration at 2 h in data set [4] of 7 nM. Besides, the inhibition in vivo at 12.5 mg/kg with GEO [5] was 88%.

These data come from ChEMBL document CHEMBL5678800 (Mol Cancer Ther, 2009).
